Test results reported in patent US20070264202A1, “Pharmaceutical Composition Comprising an Isomer of Betamimetic Agent and an Anti-Cholinergic Agent” (CIPLA LIMITED, priority 2004, published 2007).

Experiments:
beta-adrenoreceptor = conditions: in-vitro studies, salbutamol enantiomers; cited from earlier work
[1] = cited from earlier work
[2] = compared with the racemate; cited from earlier work
[3] = Flow, suspension and dispersion characteristics; format: physicochemical; conditions: compared with the racemate
[4] = test system: subjects with stable mild to moderate bronchial asthma; assay: Randomized double-blind, single-dose, crossover study of bronchodilator responses via metered dose inhaler; format: in vivo; conditions: monitored over 6 hours
Protocol: A study was conducted to compare bronchodilator responses to levosalbutamol sulphate and racemic salbutamol sulphate administered via metered dose inhaler in a randomized double-blind, single-dose, crossover study. In this study single doses of 100 mcg levosalbutamol sulphate and 200 mcg racemic salbutamol sulphate were administered via MDI in subjects with stable mild to moderate bronchial asthma, who were then monitored over a period of 6 hours. […] Thus, it is clear from the study that a reduced dose of levosalbutamol sulphate is required compared to racemic salbutamol sulphate to have the same therapeutic effect.

Question: Which “affinity for the beta-adrenoreceptor” value (beta-adrenoreceptor) does the source give for CC(C)(C)NC[C@@H](O)c1ccc(O)c(CO)c1 (single isomer, unassigned) [S-isomer] here?
Answer: The value was “markedly less affinity”.

Question: With COc1ccc(C[C@@H](C)NC[C@H](O)c2ccc(O)c(NC=O)c2)cc1 [R,R formoterol] as the molecule, how does the “activity relative to S,S-isomer or any other available isomer” value [1] read?
Answer: The value was 1000 times.

Question: Which bronchodilatory effects [2] does the source give for CC(C)(C)NC[C@H](O)c1ccc(O)c(CO)c1 [levosalbutamol] here?
Answer: Its bronchodilatory effects is “greater bronchodilatory effects than the racemate”.

Question: And the flow property [3]?
Answer: The flow property was “more free flowing than the racemate”.

Question: And the “suspension and dispersion characteristics” value [3]?
Answer: The value was “better suspension and dispersion characteristics”.

Question: Which bronchodilator response ([4]; single dose 100 mcg via MDI, compared with 200 mcg racemic salbutamol sulphate) does the source give for levosalbutamol sulphate here?
Answer: The bronchodilator response was “equivalent time-dependant bronchodilator responses”.

Question: With “salbutamol sulphate [racemic salbutamol sulphate]” as the molecule, how does the bronchodilator response ([4]; single dose 200 mcg via MDI, compared with 100 mcg levosalbutamol sulphate) read?
Answer: The bronchodilator response was “equivalent time-dependant bronchodilator responses”.
